# Assay results published in patent USRE49517E1, “Pyrazoles” (Janssen Pharmaceuticals, Inc., priority 2014, dated 2023).
# Target: human ERG receptor (Homo sapiens (Human), UniProt Q12809)
# Experiment: HERGBD: inhibition of specific [3H]-Dofetilide binding to the hERG receptor
# Conditions: HEK cell membranes
# Experimental: Inhibition of Specific Binding to the hERG—Receptor (HERGBD)
# A HEK cell line with stable transfected human ERG receptor was used for the assay. The cells were grown adherently and maintained in DULBECCOS' MEM medium with 10% FBS, 1% non-essential amino acids, 1% Penicillin/Streptomycin and 400 μg/ml G418 (Calbiochem).
# For binding assays and membrane preparations the cell culture medium was removed, cells were washed with PBS. Crude membranes for radioligand binding experiments were prepared by scraping the cells off the dishes in ice cold 20 mM HEPES/0.1 mM KCl/pH 7.2. […]
# Binding was terminated by filtration of the incubated membrane preparations using Filtermat B (Pharmacia, Uppsala Sweden) and a Micro Cell Harvester (Skatron, Lier, Norway). The Filtermat B had been presoaked with 1% polyethylen imine and carefully washed with 0.05 M Tris/HCl-buffer pH=7.7 after the filtration to separate free and bound radioactivity. The filters were counted in a scintillation counter (Betaplate 1205, Berthold, Wildbad, Germany) in order to determine the specific binding of [^3H]-Dofetilide.
# The optimal amount of membrane preparation in the assay was determined and optimized for each membrane preparation separately in front of using the membranes in compound testing. […]
# Sequence of human ERG receptor (Q12809 whole entry): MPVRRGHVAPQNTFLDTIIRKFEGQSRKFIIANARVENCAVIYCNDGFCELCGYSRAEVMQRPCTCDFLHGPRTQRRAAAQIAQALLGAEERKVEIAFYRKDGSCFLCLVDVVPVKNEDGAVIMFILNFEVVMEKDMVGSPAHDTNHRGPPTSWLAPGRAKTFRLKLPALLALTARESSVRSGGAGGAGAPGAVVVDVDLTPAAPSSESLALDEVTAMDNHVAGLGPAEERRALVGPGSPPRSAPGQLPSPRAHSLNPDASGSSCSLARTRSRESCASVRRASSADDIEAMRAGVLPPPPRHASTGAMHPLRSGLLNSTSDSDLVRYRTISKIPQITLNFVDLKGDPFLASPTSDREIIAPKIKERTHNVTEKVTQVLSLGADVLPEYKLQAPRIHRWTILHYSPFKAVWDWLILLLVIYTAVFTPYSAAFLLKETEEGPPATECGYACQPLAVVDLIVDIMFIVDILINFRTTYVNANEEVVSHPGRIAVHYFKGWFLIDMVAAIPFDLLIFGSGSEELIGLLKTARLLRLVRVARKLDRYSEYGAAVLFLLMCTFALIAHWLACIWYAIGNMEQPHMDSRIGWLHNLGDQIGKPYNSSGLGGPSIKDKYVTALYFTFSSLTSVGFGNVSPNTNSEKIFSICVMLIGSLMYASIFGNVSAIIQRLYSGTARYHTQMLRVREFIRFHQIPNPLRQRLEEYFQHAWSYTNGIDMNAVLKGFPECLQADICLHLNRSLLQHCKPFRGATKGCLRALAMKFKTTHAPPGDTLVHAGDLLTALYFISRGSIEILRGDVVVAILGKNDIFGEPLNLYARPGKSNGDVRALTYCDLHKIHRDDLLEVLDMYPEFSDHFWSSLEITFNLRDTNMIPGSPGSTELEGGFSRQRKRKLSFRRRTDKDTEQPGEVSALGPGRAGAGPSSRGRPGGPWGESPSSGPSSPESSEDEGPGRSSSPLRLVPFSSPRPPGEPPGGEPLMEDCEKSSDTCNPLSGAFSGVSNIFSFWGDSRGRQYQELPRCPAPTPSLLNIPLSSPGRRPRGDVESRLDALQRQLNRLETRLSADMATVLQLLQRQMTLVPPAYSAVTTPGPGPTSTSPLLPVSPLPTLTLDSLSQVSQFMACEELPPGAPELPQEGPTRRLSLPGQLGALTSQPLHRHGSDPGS
row,Compound,IC50 [µM]
1,"Cn1ccc(Cn2cc(-c3cccc(C(F)(F)F)c3)cn2)n1 [Example 49, 1-methyl-3-[[4-[3-(trifluoromethyl)phenyl]pyrazol-1-yl]methyl]pyrazole]",19
2,"Cc1cc(Cn2cc(-c3ccc(C(F)(F)F)cc3)cn2)n(C)n1 [Example 51, 1,3-Dimethyl-5-[[4-[4-(trifluoromethyl)phenyl]pyrazol-1-yl]methyl]-Pyrazole]",137
